From ChEMBL document CHEMBL5321269, “Discovery, synthesis and biological evaluation of a series of N-(phenylcarbamothioyl)-2-napthamides as inhibitors of Claudin-1” (Bioorg Med Chem, 2023)

tested on: SW-620; assay: Cytotoxicity against human SW620 cells assessed as cell growth inhibition at 25 uM relative to control; type: functional; details: not given

Compound | inhibition at 25 µM
O=C(Nc1ccc(N2CCN(C(=O)c3ccc4ccccc4c3)CC2)cc1)c1cc2ccccc2o1 | 27.8%
O=C(NC(=S)Nc1ccc(-c2nc3ccccc3o2)cc1)c1ccc2cccnc2c1 | 0%
COc1ccccc1C(=O)NC(=S)Nc1ccc(-c2nc3ccccc3[nH]2)cc1 | 16.9%
COc1ccccc1C(=O)NC(=S)Nc1ccc(-c2nc3ccccc3o2)cc1 | 17.2%
O=C1c2ccccc2CCN1C(=S)Nc1ccc(-c2ncco2)cc1 | 0.9%
COc1cc2ccccc2cc1C(=O)NC(=S)Nc1ccc(-c2nc3ccccc3o2)cn1 | 0%
CC(C)Oc1cc2ccccc2cc1C(=O)NC(=S)Nc1ccc(-c2nc3ccccc3o2)cc1 | 17.2%
COc1cc2ccccc2cc1C(=O)NC(=S)Nc1ccc(-c2nccs2)cc1 | 34.8%
COc1cc2ccccc2cc1C(=O)NC(=S)Nc1ccc(-c2ncc[nH]2)cc1 | 89.9%
COc1cc2ccccc2cc1C(=O)NC(=S)Nc1ccc(-c2nnco2)cc1 | 86.5%
O=C1c2ccccc2CCN1C(=S)Nc1ccc(-c2nc3ccccc3o2)cc1 | 0%
COc1cc2ccccc2cc1C(=O)NC(=O)Nc1ccc(-c2cscn2)cc1 | 42.6%
COc1cc2ccccc2cc1C(=O)NC(=S)Nc1ccc(-c2ncon2)cc1 | 18.4%
CCOc1cc2ccccc2cc1C(=O)NC(=S)Nc1ccc(-c2nc3ccccc3s2)cc1 | 13%
COc1ccccc1NC(=S)Nc1ccc(-c2nc3ccccc3[nH]2)cc1 | 13.2%
O=C(NC(=S)Nc1ccc(-c2nc3ccccc3[nH]2)cc1)c1ccc2cccnc2c1 | 0%
COc1ccccc1NC(=S)Nc1ccc(-c2nc3ccccc3o2)cc1 | 29.2%
COc1cc2ccccc2cc1C(=O)NC(=S)Nc1ccc(-c2nc3ccccc3s2)cn1 | 71.9%
COc1cc2ccccc2cc1C(=O)NC(=O)Nc1ccc(-c2nc3ccccc3s2)cc1 | 0%

Compound | inhibition at 25 µM
COc1cc2c(OC)cccc2cc1C(=O)NC(=S)Nc1ccc(-c2nc3ccccc3[nH]2)cc1 | 37.6%
O=C(NC(=S)Nc1ccc(-c2nc3ccccc3o2)cc1)c1ccc2ccccc2c1 | 76.4%
CCOc1cc2ccccc2cc1C(=O)NC(=S)Nc1ccc(-c2nnco2)cc1 | 0%
COc1ccccc1NC(=O)Nc1ccc(-c2nc3ccccc3[nH]2)cc1 | 23.8%
COc1ccccc1NC(=O)Nc1ccc(-c2nc3ccccc3o2)cc1 | 19.9%
COc1cc2ccccc2cc1C(=O)NC(=S)Nc1ccc(-c2nc3ccccc3s2)cc1 | 7.1%
O=C(NC(=S)Nc1ccc(-c2ncco2)cc1)c1ccc2cccnc2c1 | 1.4%
COc1cc2ccccc2cc1C(=O)NC(=S)Nc1ccc(-c2ncco2)cc1 | 33.1%
CCOc1cc2ccccc2cc1C(=O)NC(=S)Nc1ccc(-c2nc3ccccc3o2)cc1 | 0%
COc1cc2c(OC)cccc2cc1C(=O)NC(=S)Nc1ccc(-c2nc3ccccc3s2)cc1 | 15.8%
COc1cc2ccccc2cc1C(=O)NC(=O)Nc1ccc(-c2nc3ccccc3[nH]2)cc1 | 90.8%
COc1cc2ccccc2cc1C(=O)NC(=S)Nc1ccc(-c2nc3ccccc3o2)cc1 | 57.6%
COc1cc2ccccc2cc1C(=O)Nc1ccc(-c2nc3ccccc3s2)cc1 | 42.3%
O=C(NC(=O)c1ccc2ccccc2c1)Nc1ccc(-c2nc3ccccc3[nH]2)cc1 | 12.7%
O=C(Nc1ccc(N2CCN(C(=O)c3ccccn3)CC2)cc1)c1cc2ccccc2o1 | 44.8%
COc1cc2ccccc2cc1C(=O)NC(=S)Nc1ccc(-c2nc3ccccc3[nH]2)cc1 | 68.4%
COc1cc2ccccc2cc1C(=O)NC(=O)Nc1ccc(-c2nc3ccccc3o2)cc1 | 0%
COc1cc2ccccc2cc1C(=O)NC(=S)Nc1ccc(-c2cscn2)cc1 | 29%
COc1cc2ccccc2cc1C(=O)Nc1ncc(C(F)(F)F)s1 | 17.6%

tested on: not listed separately; assay: Protein binding in human plasma assessed as unbound fraction; type: ADME, cell-free; details: not given

Fu | Compound
< 0.03% | O=C1c2ccccc2CCN1C(=S)Nc1ccc(-c2nc3ccccc3o2)cc1
< 0.3% | COc1cc2ccccc2cc1C(=O)NC(=O)Nc1ccc(-c2cscn2)cc1
< 0.04% | O=C(NC(=S)Nc1ccc(-c2nc3ccccc3o2)cc1)c1ccc2ccccc2c1
< 0.3% | COc1cc2ccccc2cc1C(=O)NC(=O)Nc1ccc(-c2nc3ccccc3[nH]2)cc1
< 0.03% | COc1cc2ccccc2cc1C(=O)NC(=S)Nc1ccc(-c2nc3ccccc3[nH]2)cc1

tested on: not listed separately; assay: Protein binding in mouse plasma assessed as unbound fraction; type: ADME, cell-free; details: not given

Fu | Compound
2.2% | COc1cc2ccccc2cc1C(=O)NC(=S)Nc1ccc(-c2nccs2)cc1
< 0.3% | COc1cc2ccccc2cc1C(=O)NC(=O)Nc1ccc(-c2cscn2)cc1
< 0.03% | COc1cc2ccccc2cc1C(=O)NC(=S)Nc1ccc(-c2ncon2)cc1
< 0.03% | O=C(NC(=S)Nc1ccc(-c2nc3ccccc3o2)cc1)c1ccc2ccccc2c1
< 0.3% | COc1cc2ccccc2cc1C(=O)NC(=O)Nc1ccc(-c2nc3ccccc3[nH]2)cc1
< 0.03% | COc1cc2ccccc2cc1C(=O)NC(=S)Nc1ccc(-c2nc3ccccc3o2)cc1
< 0.01% | COc1cc2ccccc2cc1C(=O)NC(=S)Nc1ccc(-c2nc3ccccc3[nH]2)cc1

target: CYP3A4 (Homo sapiens, UniProt P08684); assay: Inhibition of CYP3A4 (unknown origin) at 10 uM relative to control; type: ADME; details: not given
Sequence (P08684 whole entry): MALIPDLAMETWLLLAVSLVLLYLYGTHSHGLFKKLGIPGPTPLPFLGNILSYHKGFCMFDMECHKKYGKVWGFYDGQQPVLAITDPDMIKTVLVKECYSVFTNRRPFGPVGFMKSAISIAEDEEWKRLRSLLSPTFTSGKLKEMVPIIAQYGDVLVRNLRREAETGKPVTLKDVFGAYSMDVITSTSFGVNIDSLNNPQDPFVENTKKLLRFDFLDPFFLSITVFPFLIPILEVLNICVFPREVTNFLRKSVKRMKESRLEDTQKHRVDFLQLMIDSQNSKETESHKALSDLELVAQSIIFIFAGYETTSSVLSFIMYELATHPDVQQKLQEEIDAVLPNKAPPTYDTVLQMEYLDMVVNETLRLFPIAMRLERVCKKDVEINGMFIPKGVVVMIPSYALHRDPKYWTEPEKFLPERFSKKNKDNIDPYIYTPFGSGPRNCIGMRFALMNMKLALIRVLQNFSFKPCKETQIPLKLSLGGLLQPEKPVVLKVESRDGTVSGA

inhibition at 10 µM | Compound
28% | COc1cc2ccccc2cc1C(=O)NC(=S)Nc1ccc(-c2ncc[nH]2)cc1
16% | COc1cc2ccccc2cc1C(=O)NC(=S)Nc1ccc(-c2nnco2)cc1

target: CYP2D6 (Homo sapiens, UniProt P10635); assay: Inhibition of CYP2D6 (unknown origin) at 10 uM relative to control; type: ADME; details: not given
Sequence (P10635 whole entry): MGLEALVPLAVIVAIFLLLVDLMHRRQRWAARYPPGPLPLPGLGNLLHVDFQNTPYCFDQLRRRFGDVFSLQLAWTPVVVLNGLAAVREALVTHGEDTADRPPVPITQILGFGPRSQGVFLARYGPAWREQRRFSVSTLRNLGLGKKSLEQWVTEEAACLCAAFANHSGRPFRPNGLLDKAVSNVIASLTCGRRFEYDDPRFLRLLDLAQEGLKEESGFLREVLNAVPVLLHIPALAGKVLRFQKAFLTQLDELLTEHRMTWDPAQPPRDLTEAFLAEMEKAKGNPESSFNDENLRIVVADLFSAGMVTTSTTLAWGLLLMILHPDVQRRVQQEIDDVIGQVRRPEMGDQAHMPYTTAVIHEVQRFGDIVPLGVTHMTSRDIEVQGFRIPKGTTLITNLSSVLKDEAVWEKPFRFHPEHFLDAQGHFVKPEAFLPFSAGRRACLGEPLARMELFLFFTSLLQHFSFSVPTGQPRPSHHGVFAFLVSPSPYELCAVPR

inhibition at 10 µM | Compound
36% | COc1cc2ccccc2cc1C(=O)NC(=S)Nc1ccc(-c2ncc[nH]2)cc1
19% | COc1cc2ccccc2cc1C(=O)NC(=S)Nc1ccc(-c2nnco2)cc1

target: CYP2C19 (Homo sapiens, UniProt P33261); assay: Inhibition of CYP2C19 (unknown origin) at 10 uM relative to control; type: ADME; details: not given
Sequence (P33261 whole entry): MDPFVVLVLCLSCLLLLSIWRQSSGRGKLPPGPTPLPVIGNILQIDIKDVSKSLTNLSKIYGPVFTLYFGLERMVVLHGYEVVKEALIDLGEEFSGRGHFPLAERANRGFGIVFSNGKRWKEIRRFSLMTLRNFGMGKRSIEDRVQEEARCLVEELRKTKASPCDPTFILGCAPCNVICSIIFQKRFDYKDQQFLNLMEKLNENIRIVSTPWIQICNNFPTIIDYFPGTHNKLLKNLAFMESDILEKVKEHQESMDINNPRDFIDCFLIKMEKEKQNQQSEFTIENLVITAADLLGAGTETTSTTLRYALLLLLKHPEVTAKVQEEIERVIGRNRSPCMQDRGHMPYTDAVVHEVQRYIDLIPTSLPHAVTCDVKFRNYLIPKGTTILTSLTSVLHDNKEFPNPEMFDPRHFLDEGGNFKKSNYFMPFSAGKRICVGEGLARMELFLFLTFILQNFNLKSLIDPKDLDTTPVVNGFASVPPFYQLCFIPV

inhibition at 10 µM | Compound
43% | COc1cc2ccccc2cc1C(=O)NC(=S)Nc1ccc(-c2ncc[nH]2)cc1
37% | COc1cc2ccccc2cc1C(=O)NC(=S)Nc1ccc(-c2nnco2)cc1

tested on: not listed separately; assay: Half life in CD1 mouse at 5 mg/kg, ip; type: ADME, organism-based; details: in vivo

half-life | Compound
2.49 h | COc1cc2ccccc2cc1C(=O)NC(=S)Nc1ccc(-c2ncc[nH]2)cc1
3.51 h | COc1cc2ccccc2cc1C(=O)NC(=S)Nc1ccc(-c2nnco2)cc1

tested on: not listed separately; assay: Mean residence time in CD1 mouse at 5 mg/kg, ip; type: ADME, organism-based; details: in vivo

MRT | Compound
2.7 h | COc1cc2ccccc2cc1C(=O)NC(=S)Nc1ccc(-c2ncc[nH]2)cc1
5.3 h | COc1cc2ccccc2cc1C(=O)NC(=S)Nc1ccc(-c2nnco2)cc1

tested on: not listed separately; assay: Tmax in CD1 mouse at 5 mg/kg, ip; type: ADME, organism-based; details: in vivo

Tmax | Compound
1 h | COc1cc2ccccc2cc1C(=O)NC(=S)Nc1ccc(-c2ncc[nH]2)cc1
2.33 h | COc1cc2ccccc2cc1C(=O)NC(=S)Nc1ccc(-c2nnco2)cc1

tested on: not listed separately; assay: Cmax in CD1 mouse at 5 mg/kg, ip; type: ADME, organism-based; set-up: dose 5 mg/kg, route ip; details: in vivo

Cmax | Compound
5060 ng/mL | COc1cc2ccccc2cc1C(=O)NC(=S)Nc1ccc(-c2ncc[nH]2)cc1
5100 ng/mL | COc1cc2ccccc2cc1C(=O)NC(=S)Nc1ccc(-c2nnco2)cc1

tested on: not listed separately; assay: AUCinfinity in CD1 mouse at 5 mg/kg, ip; type: ADME, organism-based; set-up: dose 5 mg/kg, route ip; details: in vivo

AUC(0-inf) | Compound
15900 ng·h/mL | COc1cc2ccccc2cc1C(=O)NC(=S)Nc1ccc(-c2ncc[nH]2)cc1
34100 ng·h/mL | COc1cc2ccccc2cc1C(=O)NC(=S)Nc1ccc(-c2nnco2)cc1
